Entries after “also recorded” stand apart in the source; their conditions may differ.
Experiments:
C2C12 mouse myoblasts = assay: Mitochondrial membrane potential by relative JC-1 fluorescence; format: cell-based; settings: C2C12 cells, 24 h; for Increase in mitochondrial membrane potential: vs. control
Excerpt: The objective of the experiment was to investigate whether and how mitochondrial energy production in myoblasts is affected by hydroxytyrosol alone or in combination with other compounds. For energy production, the mitochondrial electron transport chain generates a proton gradient across the […], creating a membrane potential that powers the synthesis of ATP by the ATP synthase complex. […] If a critical concentration is reached, JC-1 forms aggregates, which changes its fluorescence properties from green to red fluorescence. […] An increased mitochondrial membrane potential indicates an improved energetic state and increased capability to generate ATP and provide energy for other cellular components. […] C2C12 cells were seeded into a 96-well cell culture plate at 1000 cells/well and cultured in growth medium (Dulbecco's modified eagle medium (DMEM) supplemented with 10% fetal bovine serum) in a standard incubator (humidified, 37° C., 5% CO2) for 24 h. […] […] After 24 h of treatment, cells were incubated with medium containing JC-1 (2 ug/ml) for 30 min at 37° C., then the staining solution was removed, DMEM without phenol red was added, and green fluorescence (ex 485 nm/em 538 nm) and red fluorescence (ex 544 nm/em 590 nm) was measured using a fluorescence plate reader (SpectraMax M5). The ratio of red to green fluorescence in each well was determined and the average and standard deviation of the quadruplicate treatments were calculated.

[1] = tested on: mitochondrial electron transport complex I; assay: Mitochondrial complex I protein expression in adipocytes (Western blot); format: cell-based, murine; settings: 3T3-L1 adipocytes, 48 hrs, vs. control
Procedure: (§1) Murine 3T3-L1 pre-adipocytes (American Type Culture Collection) were cultured in Dulbecco's Modified Eagle's Medium (DMEM) supplemented with 10% fetal bovine serum and allowed to reach confluence. Differentiation of pre-adipocytes was initiated with 1 μM insulin, 0.25 μM dexamethasone and 0.5 mM 3-isobutyl-1-methylxanthine in DMEM, supplemented with 10% fetal bovine serum. After 48 h, the culture medium was replaced with DMEM supplemented with 10% fetal bovine serum and 1 μM insulin. The culture medium was changed every other day with DMEM containing 10% fetal bovine serum. […] After treatment, cells were washed twice with ice-cold PBS, lysed in sample buffer (62.5 mM Tris-Cl pH 6.8, 2% SDS, 5 mM DTT) at room temperature and vortexed. Cell lysates were then boiled for 5 minutes and cleared by centrifugation (13,000 rpm, 10 minutes at 4° C.). Protein concentration was determined using the Bio-Rad DC protein assay. The soluble lysates (10 μg per lane) were subjected to 10% SDS-PAGE, proteins were then transferred to nitrocellulose membranes and blocked with 5% non-fat milk/TBST for 1 h at room temperature. Membranes were incubated with primary antibodies directed against PPAR-γ (1:1000), PGC-1α (1:1000), α-tubulin (1:10 000), Complex I (1:2000), Complex II (1:2000), Complex III (1:2000) and Complex V (1:2000) in 5% milk/TBST at 4° C. overnight. After washing membranes with TBST three times, membranes were incubated with horseradish peroxidase-conjugated secondary antibody for 1 h at room temperature. Western blots were developed using ECL (Roche Manheim, Germany) and quantified by scanning densitometry.

PGC-1α = PGC-1α protein level in adipocytes (Western blot, densitometry); format: cell-based, murine; settings: 3T3-L1 adipocytes; hydroxytyrosol 1.0 μM; vs. control
Procedure: as §1, with “Membranes were incubated with primary antibodies directed against PPAR-γ (1:1000), PGC-1α (1:1000), α-tubulin (1:10 000), Complex I (1:2000), Complex II (1:2000), Complex III (1:2000) and Complex V (1:2000) in 5% milk/TBST at 4° C. overnight. After washing membranes with TBST three times, membranes were incubated with horseradish peroxidase-conjugated secondary antibody for 1 h at room temperature.” left out

For `NC(=O)c1ncn([C@@H]2O[C@H](CO)[C@@H](O)[C@H]2O)c1N` [AICAR, aminoimidazole carboxamide ribonucleotide], the “Effect on mitochondrial membrane potential (red/green JC-1 fluorescence ratio)” value (“Effect … (red/green JC-1 fluorescence ratio)” for short) (C2C12 mouse myoblasts; 500 uM) was “increase in mitochondrial potential; also recorded: increase mitochondrial membrane potential” and the “Increase in mitochondrial membrane potential” value (from here on “Increase”) (C2C12 mouse myoblasts; 500 μM) was 16%.
In the case of `Cn1c(=O)c2c(ncn2C)n(C)c1=O` [Caffeine, caffeine], the “Effect … (red/green JC-1 fluorescence ratio)” value (C2C12 mouse myoblasts; 200 uM alone) is reported as “no significant effect” and the “Increase” value (C2C12 mouse myoblasts; 200 μM alone) is reported as −4%.
In the case of `OCCc1ccc(O)c(O)c1` [Hydroxytyrosol, 3,4-dihydroxyphenylethanol], the “Mitochondrial electron transport complex I protein” value ([1]; 0.1 μM) is reported as 131±16%, the “Mitochondrial electron transport complex I protein” value ([1]; 1.0 μM) is reported as 163±31% and the “Mitochondrial electron transport complex I protein” value ([1]; 10.0 μM) is reported as 138±21%. For the same compound, the “PGC-1α protein expression (PGC-1α:α-tubulin ratio), maximum” value (PGC-1α) was 205±52%, the “Effect … (red/green JC-1 fluorescence ratio)” value (C2C12 mouse myoblasts; 1 uM) was “no significant effect” and the “Increase” value (C2C12 mouse myoblasts; 1 μM) was 1%. For the same compound, the “Increase” value (C2C12 mouse myoblasts; 10 μM) was 11%.
In the case of `C[N+](C)(C)C[C@H](O)CC(=O)[O-]` [L-carnithine], the “Effect … (red/green JC-1 fluorescence ratio)” value (C2C12 mouse myoblasts; 200 uM alone) is reported as “no significant effect” and the “Increase” value (C2C12 mouse myoblasts; 200 μM alone) is reported as 0%.
